Reference: patent publication EP0774455A1, “Excitatory amino acid receptor antagonists” (ELI LILLY AND COMPANY, priority 1995, dated 1997)
Blank lines part the entries; values can stand above or below the compound they belong to.

Columns and labels:
[1] = tested on: mouse; assay: mouse conditioned active avoidance response model; assay type: in vivo
Text: (Pfeiffer & Jenney, Ann. N.Y. Acad. Sci., 66:[…], 1957; Maffii, J. Pharm. Pharmacol., 11: 129-139, 1959; Cook & Weidley, Ann; N.Y. Acad. Sci., 66: […], 1957; Janke, Handbook of Experimental Pharmacology, Vol. 55/I, New York: Plenum Press, 1978).

[2] = tested on: metabotropic glutamate receptors; assay: selective displacement of 1S,3R-ACPD-sensitive [3H]glutamate binding to rat brain cell membranes (crude membranes of rat forebrain)
Protocol: The binding of [^3H]glutamate was conducted with crude membranes of rat forebrain as described by Schoepp and True. Schoepp and True, Neuroscience Lett., 145, 100-104 (1992) and Wright et al., J. Neurochemisty 63: 938-945 (1994).

[3] = tested on: mouse; assay: mouse elevated plus maze model; assay type: in vivo

SMILES: N[C@@]1(C(=O)O)[C@H](Cc2ccc(F)c(F)c2F)C[C@H]2[C@H](C(=O)O)[C@H]21 (racemic) [Example 25, 1SR,2SR,3SR,5RS,6SR-2-Amino-3-((2,3,4-trifluoro)-benzyl)bicyclo[3.1.0]hexane-2,6-dicarboxylic acid]
- neuroleptic properties [1]: neuroleptic properties

- IC50 [2]: 320 nM
SMILES: NC1(C(=O)O)C(CCCc2ccccc2)CC2C(C(=O)O)C21 (stereo not drawn) [Example 1, Mixture of 1SR,2SR,3RS,5RS,6SR-2-amino-3-(3-phenylpropyl)bicyclo[3.1.0]-hexane-2,6-dicarboxylic acid and 1SR, 2RS, 3RS, 5RS, 6SR-2-amino-3-(3-phenylpropyl)bicyclo[3.1.0]hexane-2,6-dicarboxylic acid]

SMILES: Cc1cccc(C[C@@H]2C[C@H]3[C@H](C(=O)O)[C@H]3[C@]2(N)C(=O)O)c1 (racemic) [Example 4, 1SR,2SR,3SR,5RS,6SR-Amino-3-((3-methyl)benzyl)bicyclo[3.1.0]hexane-2,6-dicarboxylic acid]
- anxiolytic effect [3]: anxiolytic effect
